From patent publication US9708336B2, “Metallo-beta-lactamase inhibitors” (priority 2014, dated 2017) come the findings set out here.

One test addresses NDM-1 (Klebsiella pneumoniae, UniProt C7C422). The test can be described thus: biochemical. The format is biochemical. The settings on record: NDM-1 enzyme, CCF2-FA substrate; read-out: NDM-1 IC50.
Test [1] has as its system Escherichia coli expressing NDM-1 (CLB30016). Briefly: Antibiotic potentiation activity: synergistic concentration (MITC95) with imipenem, OD600 growth. The following applies: (CLB30016, NDM-1), 95% growth inhibition. It counts as cell-based. Summed up:
(§1)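 Overnight colonies (35 °C) were suspended in saline, diluted 1:100 into 1.1× CAMHB, and exposed to test compound with imipenem at 4 μg/ml (optionally 1 μg/ml) in assay. After 22–24 h at 35 °C, growth was read by absorbance.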

The subject of test [2] is Klebsiella pneumoniae expressing VIM-1 (IHMA599644). The test is described as above. The following applies: Klebsiella pneumoniae IHMA599644 (VIM-1), 95% growth inhibition. It counts as cell-based. In outline:
as §1

For test [3], the system named is Serratia marcescens expressing IMP-1 (CL5741). The test is described as above. The format is cell-based. The settings on record: Serratia marcescens CL5741 (IMP-1), 95% growth inhibition. In outline:
as §1

The target in another test is IMP-1 (Serratia marcescens, UniProt P52699). Briefly: biochemical. The format is biochemical. The following applies: IMP-1 enzyme, CCF2-FA substrate; read-out: IMP-1 IC50.
A further test concerns the target VIM-1 (Pseudomonas aeruginosa (strain ATCC 15692 / DSM 22644 / CIP 104116 / JCM 14847 / LMG 12228 / 1C / PRS 101 / PAO1), UniProt A0A0F7KYQ8). The test can be described thus: Enzyme activity: determination of IC50, fluorescence assay with CCF2-FA substrate (VIM-1). The following applies: CCF2-FA substrate. It counts as biochemical.
Where [4] appears, read: VIM-1 enzyme, read-out: VIM-1 IC50.

SMILES strings stand for the structures. Like-named read-outs stand apart in the source and are kept apart here.

IMP-1, sequence (P52699 whole entry, looked up): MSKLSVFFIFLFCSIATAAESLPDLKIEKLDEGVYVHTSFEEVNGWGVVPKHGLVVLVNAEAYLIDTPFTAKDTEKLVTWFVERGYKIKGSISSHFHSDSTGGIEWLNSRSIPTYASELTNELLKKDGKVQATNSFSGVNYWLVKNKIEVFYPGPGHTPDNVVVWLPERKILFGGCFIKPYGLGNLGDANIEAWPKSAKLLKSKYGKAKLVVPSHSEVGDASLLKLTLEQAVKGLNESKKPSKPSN
NDM-1, sequence (C7C422 whole entry, looked up, species assumed): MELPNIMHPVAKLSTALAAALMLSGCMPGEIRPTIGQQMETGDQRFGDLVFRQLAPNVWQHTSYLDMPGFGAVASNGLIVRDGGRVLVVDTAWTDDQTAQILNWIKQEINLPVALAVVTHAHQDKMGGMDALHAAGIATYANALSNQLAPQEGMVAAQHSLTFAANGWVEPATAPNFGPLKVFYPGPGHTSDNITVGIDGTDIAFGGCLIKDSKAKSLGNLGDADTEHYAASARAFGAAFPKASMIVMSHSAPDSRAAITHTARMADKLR

Regarding `Nc1ccc(-c2ccc(C(F)(F)F)c(S(N)(=O)=O)c2-c2nnn[nH]2)nc1` [Example 562, 3-(5-aminopyridin-2-yl)-2-(1H-tetrazol-5-yl)-6-(trifluoromethyl)benzenesulfonamide], the figures for the IC50 on NDM-1, on IMP-1 and on VIM-1 (setting [4]) were 5 nM, 7.55 nM and 2.35 nM, respectively. In test [1], the “Escherichia coli MITC95” value was 0.5859 µM. For the same molecule, the “Klebsiella pneumoniae MITC95” value in test [2] came out at 3.125 µM. Besides, the “Serratia marcescens MITC95” value in test [3] is 0.3906 µM.

As to `N=C(NC1CNC1)c1ccc(-c2ccc(C(F)(F)F)c(S(N)(=O)=O)c2-c2nn[nH]n2)cc1` [Example 563, N-(azetidin-3-yl)-3′-sulfamoyl-2′-(2H-tetrazol-5-yl)-4′-(trifluoromethyl)biphenyl-4-carboximidamide], the IC50 (usually the point on the concentration scale where inhibition reaches its midpoint) on NDM-1 was found to be 53.8 nM; on IMP-1, 45.9 nM; at VIM-1 (setting [4]), 5.02 nM. Besides, in test [1], the “Escherichia coli MITC95” value was determined as 3.125 µM. Also, in test [2], the “Klebsiella pneumoniae MITC95” value worked out at 3.125 µM. Moreover, the “Serratia marcescens MITC95” value in test [3] came to 6.25 µM.

On to `N=C(NC1CCNC1)c1ccc(-c2ccc(C(F)(F)F)c(S(N)(=O)=O)c2-c2nn[nH]n2)cc1` (stereo not drawn) [Example 564, N-(pyrrolidin-3-yl)-3′-sulfamoyl-2′-(2H-tetrazol-5-yl)-4′-(trifluoromethyl)biphenyl-4-carboximidamide], for which the IC50 on NDM-1 was determined as 262 nM; at IMP-1 it was 301 nM; on VIM-1 (setting [4]), 36.3 nM. Moreover, in test [1], the “Escherichia coli MITC95” value came out at 25 µM. For the same molecule, the “Klebsiella pneumoniae MITC95” value in test [2] is 50 µM. Further, the “Serratia marcescens MITC95” value in test [3] stood at 25 µM.

Take `N=C(NCCCN)c1ccc(-c2ccc(C(F)(F)F)c(S(N)(=O)=O)c2-c2nn[nH]n2)cc1` [Example 565, N-(3-aminopropyl)-3′-sulfamoyl-2′-(2H-tetrazol-5-yl)-4′-(trifluoromethyl)biphenyl-4-carboximidamide]: the IC50 on NDM-1 was 187 nM; at IMP-1, 200 nM; on VIM-1 (setting [4]), 11.3 nM. For the same molecule, in test [1], the “Escherichia coli MITC95” value was 12.5 µM. In addition, the “Klebsiella pneumoniae MITC95” value in test [2] was 12.5 µM. In addition, the “Serratia marcescens MITC95” value in test [3] was found to be 25 µM.

`Nc1nc2cc(F)cc(-c3ccc(C(F)(F)F)c(S(N)(=O)=O)c3-c3nnn[nH]3)c2[nH]1` [Example 566, 3-(2-amino-5-fluoro-1H-benzo[d]imidazol-7-yl)-2-(1H-tetrazol-5-yl)-6-(trifluoromethyl)benzenesulfonamide]: the figures for the IC50 on NDM-1, on IMP-1 and at VIM-1 (setting [4]) were 0.233 nM, 2.68 nM and 0.508 nM, respectively. Further, the “Escherichia coli MITC95” value in test [1] was 0.7813 µM. Moreover, the “Klebsiella pneumoniae MITC95” value in test [2] was 3.125 µM. Besides, in test [3], the “Serratia marcescens MITC95” value is 3.125 µM.

In the case of `Nc1nc2cc(C(F)(F)F)cc(-c3ccc(C(F)(F)F)c(S(N)(=O)=O)c3-c3nnn[nH]3)c2[nH]1` [Example 567], the IC50 on NDM-1 was 0.299 nM; on IMP-1 it was 3.77 nM; at VIM-1 (setting [4]) it was 0.225 nM. The “Escherichia coli MITC95” value in test [1] amounted to 3.125 µM. Also, the “Klebsiella pneumoniae MITC95” value in test [2] was determined as 6.25 µM. For the same molecule, the “Serratia marcescens MITC95” value in test [3] was 6.25 µM.

As to `Cc1ccc(-c2ccc(C(F)(F)F)c(S(N)(=O)=O)c2-c2nnn[nH]2)c2[nH]c(N)nc12` [Example 568, 3-(2-amino-4-methyl-1H-benzo[d]imidazol-7-yl)-2-(1H-tetrazol-5-yl)-6-(trifluoromethyl)benzenesulfonamide], the IC50 at NDM-1 was determined as 0.0983 nM; on IMP-1 it was 1.17 nM; at VIM-1 (setting [4]), 0.161 nM. The “Escherichia coli MITC95” value in test [1] was found to be 0.3906 µM. The “Klebsiella pneumoniae MITC95” value in test [2] stood at 1.563 µM. Further, the “Serratia marcescens MITC95” value in test [3] came to 1.563 µM.

Turning to `N#Cc1cc(-c2ccc(C(F)(F)F)c(S(N)(=O)=O)c2-c2nnn[nH]2)c2[nH]c(N)nc2c1` [Example 569, 3-(2-amino-5-cyano-1H-benzo[d]imidazol-7-yl)-2-(1H-tetrazol-5-yl)-6-(trifluoromethyl)benzenesulfonamide], the IC50 was 0.215 nM at NDM-1, 1.62 nM on IMP-1 and 0.309 nM on VIM-1 (setting [4]). In addition, in test [1], the “Escherichia coli MITC95” value is 6.25 µM. Also, in test [2], the “Klebsiella pneumoniae MITC95” value was found to be 6.25 µM. Also, the “Serratia marcescens MITC95” value in test [3] worked out at 3.125 µM.

As to `Nc1nc2nccc(-c3ccc(C(F)(F)F)c(S(N)(=O)=O)c3-c3nnn[nH]3)c2[nH]1` [Example 570, 3-(2-amino-1H-imidazo[4,5-b]pyridin-7-yl)-2-(1H-tetrazol-5-yl)-6-(trifluoromethyl)benzenesulfonamide], the IC50 at NDM-1 was 0.33 nM; at IMP-1 it was 4.06 nM; on VIM-1 (setting [4]) it was 0.49 nM. The “Escherichia coli MITC95” value in test [1] was determined as 3.125 µM. Besides, the “Klebsiella pneumoniae MITC95” value in test [2] was 6.25 µM. Besides, the “Serratia marcescens MITC95” value in test [3] is 6.25 µM.

For `Cc1nc(N)ccc1Cc1cccc(S(N)(=O)=O)c1-c1nn[nH]n1` [Example 572, 3-((6-amino-2-methylpyridin-3-yl)methyl)-2-(2H-tetrazol-5-yl)benzenesulfonamide], the IC50 on NDM-1 amounted to 14.7 nM; on IMP-1, 701 nM; at VIM-1 (setting [4]) it was 8.98 nM. Also, the “Escherichia coli MITC95” value in test [1] came to 0.5859 µM. For the same molecule, the “Klebsiella pneumoniae MITC95” value in test [2] stood at 6.25 µM. Besides, the “Serratia marcescens MITC95” value in test [3] stood at 25 µM.

`Cc1cc(N)ncc1Cc1cccc(S(N)(=O)=O)c1-c1nn[nH]n1` [Example 573, 3-((6-amino-4-methylpyridin-3-yl)methyl)-2-(2H-tetrazol-5-yl)benzenesulfonamide]: the IC50 is 38.6 nM on NDM-1, 668 nM on IMP-1 and 41.4 nM at VIM-1 (setting [4]). For the same molecule, in test [1], the “Escherichia coli MITC95” value is 0.7813 µM. Also, the “Klebsiella pneumoniae MITC95” value in test [2] came to 12.5 µM. Moreover, the “Serratia marcescens MITC95” value in test [3] is 12.5 µM.

Regarding `Nc1ccc(-c2ccc(C[C@H]3CC[C@@H](N)CC3)c(S(N)(=O)=O)c2-c2nnn[nH]2)cn1` [Example 574, 6-(((1s,4s)-4-aminocyclohexyl)methyl)-3-(6-aminopyridin-3-yl)-2-(2H-tetrazol-5-yl)benzenesulfonamide], the values for the IC50 on NDM-1, on IMP-1 and on VIM-1 (setting [4]) were 1.5 nM, 35.9 nM and 7.94 nM, respectively. The “Escherichia coli MITC95” value in test [1] worked out at 0.3906 µM. The “Klebsiella pneumoniae MITC95” value in test [2] is 3.125 µM. In addition, the “Serratia marcescens MITC95” value in test [3] was 3.125 µM.

Consider `Nc1ccc(-c2ccc(C[C@H]3CC[C@H](N)CC3)c(S(N)(=O)=O)c2-c2nnn[nH]2)cn1` [Example 575, 6-(((1r,4r)-4-aminocyclohexyl)methyl)-3-(6-aminopyridin-3-yl)-2-(1H-tetrazol-5-yl)benzenesulfonamide], for which the IC50 on NDM-1 worked out at 3.15 nM; on IMP-1 it was 59.5 nM; on VIM-1 (setting [4]), 6.98 nM. For the same molecule, the “Escherichia coli MITC95” value in test [1] was 0.3906 µM. Further, in test [2], the “Klebsiella pneumoniae MITC95” value came to 6.25 µM. Moreover, in test [3], the “Serratia marcescens MITC95” value turned out to be 3.125 µM.

As to `Nc1ccc(-c2ccc(CC3CCNCC3)c(S(N)(=O)=O)c2-c2nnn[nH]2)cn1` [Example 576, 3-(6-amino-3-pyridyl)-6-(4-piperidylmethyl)-2-(1H-tetrazol-5-yl)benzenesulfonamide], the IC50 at NDM-1 came out at 12.3 nM; at IMP-1, 164 nM; against VIM-1 (VIM-1 IC50, VIM-1 enzyme) it was 24.8 nM. Moreover, in test [1], the “Escherichia coli MITC95” value stood at 0.5969 µM. Also, in test [2], the “Klebsiella pneumoniae MITC95” value was found to be 4.24 µM. The “Serratia marcescens MITC95” value in test [3] was 6.323 µM.

For `Nc1ccc(-c2ccc(CC[C@H]3CC[C@H](N)CC3)c(S(N)(=O)=O)c2-c2nnn[nH]2)cn1` [Example 577, 6-(2-((1r,4s)-4-aminocyclohexyl)ethyl)-3-(6-aminopyridin-3-yl)-2-(1H-tetrazol-5-yl)benzenesulfonamide], the IC50 was 2.47 nM at NDM-1, 29.6 nM at IMP-1 and 10.4 nM at VIM-1 (setting [4]). Moreover, the “Escherichia coli MITC95” value in test [1] was found to be 0.7813 µM. Moreover, the “Klebsiella pneumoniae MITC95” value in test [2] worked out at 12.5 µM. In test [3], the “Serratia marcescens MITC95” value was 3.125 µM.

For the molecule `Nc1ccc(-c2ccc(CC[C@H]3CC[C@@H](N)CC3)c(S(N)(=O)=O)c2-c2nnn[nH]2)cn1` [Example 578, 6-(2-((1s,4r)-4-aminocyclohexyl)ethyl)-3-(6-aminopyridin-3-yl)-2-(1H-tetrazol-5-yl)benzenesulfonamide], the IC50 came out at 1.85 nM at NDM-1, 47.1 nM on IMP-1 and 11.1 nM on VIM-1 (setting [4]). In addition, the “Escherichia coli MITC95” value in test [1] is 3.125 µM. Besides, in test [2], the “Klebsiella pneumoniae MITC95” value came out at 50 µM. For the same molecule, the “Serratia marcescens MITC95” value in test [3] is 12.5 µM.

Regarding `NC[C@H]1CC[C@H](Cc2ccc(-c3ccc(N)nc3)c(-c3nnn[nH]3)c2S(N)(=O)=O)CC1` [Example 579, 6-(((1r,4r)-4-(aminomethyl)cyclohexyl)methyl)-3-(6-aminopyridin-3-yl)-2-(1H-tetrazol-5-yl)benzenesulfonamide], the IC50 was determined as 1.64 nM at NDM-1; 17.8 nM on IMP-1; 3.12 nM on VIM-1 (VIM-1 IC50, VIM-1 enzyme). The “Escherichia coli MITC95” value in test [1] came out at 0.7813 µM. The “Klebsiella pneumoniae MITC95” value in test [2] stood at 12.5 µM. Moreover, the “Serratia marcescens MITC95” value in test [3] turned out to be 3.125 µM.
